Source: patent publication US8343696B2, “Colored curable composition, fluorine-containing dipyrromethene compound and tautomer thereof, and fluorine-containing dipyrromethene metal complex and tautomer thereof, and color filter using the same and method for producing the color filter” (FUJIFILM Corporation, priority 2008, dated 2013)

Legend:
Type in all cases: physicochemical
[1] = Light-fastness of coating film (color difference ΔEab before and after xenon lamp irradiation); conditions: xenon lamp 20,000 luxes for 10 hours (200,000 lux·h)
Protocol: A glass substrate having undercoat layer formed by applying the colored resin composition obtained in section 3 above was irradiated with a xenon lamp at an intensity of 20,000 luxes for 10 hours (equivalent to 200,000 lux·h), and the color difference ΔEab between before and after the irradiation was determined. The light-fastness was evaluated according to the following criteria. A smaller ΔEab value indicates better light-fastness.
(§1) A: ΔEab value was less than 6
(§2) B: ΔEab value was from 6 to 10
(§3) C: ΔEab value was more than 10

[2] = Storage stability of colored resist solution (precipitation after one month at room temperature); set-up: key: A: No precipitation was observed; B: Slight precipitation was observed; C: Precipitation was observed; conditions: negative-working colored resist solution, visual precipitation
Description: 9.4 g of the resist solution obtained in section 1 above and 0.35 g of the exemplary compound Ia-12 synthesized above (a compound represented by Formula (4): dipyrromethene complex compound) were mixed and dissolved, whereby a colored resist solution (a negative-working ultraviolet-sensitive colored curable composition) was obtained.
The colored resist solution was stored for one month at room temperature, and then degree of precipitation was visually observed. The storage stability was evaluated according to the following criteria.
A: No precipitation was observed
B: Slight precipitation was observed
C: Precipitation was observed

[3] = Transmittance at 450 nm of the color filter; conditions: negative-working colored resist, 1.0 μm film; transmittance at λmax normalized to 2%
Protocol: The colored resist solution obtained in section 3 above was applied to an undercoat layer side of the glass substrate having an undercoat layer obtained in section 2 above by a spin coater such that a film thickness was 1.0 μm. Subsequently, the film was pre-baked at 100° C. for 120 sec, whereby a monochromatic color filter was obtained.
The transmission spectrum of the color filter obtained above was measured, and the transmittance at 450 nm was evaluated according to the following criteria. The transmittance of the color filter at 450 nm was evaluated by correcting (normalizing) the transmittance at the maximum absorption wavelength of the colorant included in the color filter to 2%. A larger transmittance indicates greater transmission of blue light, which indicates favorable magenta or violet color that can be used in a blue filter.
A: Transmittance at 450 nm was 90% or more
B: Transmittance at 450 nm was 80% or more but not more than 90%
C: Transmittance at 450 nm was not more than 80%

[4] = Heat resistance of coating film (color difference ΔEab before and after heating); conditions: 100° C. for 1 hour on hot plate
Protocol: A glass substrate having undercoat layer formed by applying the colored resin composition obtained in section 3 above was heat-treated at 100° C. for 1 hour using a hot plate, and the color difference (ΔEab) between before and after the heating was determined by using a […] MCPD-1000 (trade name, manufactured by Otsuka Electronics Co., Ltd.). The heat resistance was evaluated according to the following criteria. A smaller AEab value indicates better heat resistance.
as §1, §2, §3

[5] = Absorption spectrum in ethyl acetate solution (spectrophotometer UV-2400PC)
Protocol: In consideration of film thickness, the molar absorption coefficient of the specific metal complex compounds-1, -2, -3 and -4 of the invention is preferably as high as possible, and 60,000 or higher is preferable. The maximum absorption wavelength (λmax) thereof is preferably from 520 nm to 580 nm, and more preferably from 530 nm to 570 nm, in order to improve color purity. The maximum absorption wavelength and the molar absorption coefficient are determined by using a spectrophotometer UV-2400PC (manufactured by Shimadzu Corporation).
The molar absorption coefficient (ε) of each of the obtained compounds was measured in an ethyl acetate solution using a spectrophotometer (trade name: UV-2400PC; manufactured by Shimadzu Corporation). The absorbance (Abs) at 450 nm was evaluated by normalizing the absorbance at a maximum absorption wavelength (λmax) to 1.0. […] The measurement results of the absorbance (Abs value), maximum absorption wavelength (λmax), and molar absorption coefficient (ε) are shown in Table 1.
By the method similar to the reaction scheme in Synthesis Example 1 above, the exemplary compounds (dipyrromethene metal complex compounds or tautomers thereof) shown in Table 1 were synthesized. The identification of the compounds and the measurement of the maximum absorption wavelength (λmax) and the molar absorption coefficient (ε) of the compounds were performed similarly to Synthesis Example 1 above.

Light-fastness [1] | Storage stability [2] | Heat resistance [4] | maximum absorption wavelength (λmax) [5] [nm] | molar absorption coefficient (ε) [5] | Abs value at 450 nm when normalized to Abs = 1.0 at λmax [5] | Structure (SMILES) | Transmittance at 450 nm [3]
B (ΔEab value was from 6 to 10) | A | B (ΔEab value was from 6 to 10) | 563 | 88,700 | 0.0142 | CC1CC(C(C)(C)C)C(OC(=O)c2c(-c3ccccc3)c3[n](c2NC(=O)c2cccc(C(F)(F)F)c2)[Zn-]([OH])[N+]2=C(NC(=O)C(C)SCCCS(=O)(=O)[O-])C(C#N)=C(c4ccccc4)C2=C3)C(C(C)(C)C)C1.[Na+] (stereo not drawn) [Ib-20] | A (Transmittance at 450 nm was 90% or more)
A (ΔEab value was less than 6) | A | A (ΔEab value was less than 6) | 562 | 80,500 | 0.0173 | CC1CC(C(C)(C)C)C(OC(=O)c2c(-c3ccccc3)c3[n](c2NC(=O)c2ccc(F)c(F)c2)[Zn-]([OH])[N+]2=C(NC(=O)C(C)Sc4cc(C(=O)O)cc(C(=O)O)c4)C(C#N)=C(c4ccccc4)C2=C3)C(C(C)(C)C)C1 (stereo not drawn) [Ib-35] | A (Transmittance at 450 nm was 90% or more)
B (ΔEab value was from 6 to 10) | A | B (ΔEab value was from 6 to 10) | 562 | 95,600 | 0.0082 | CC1CC(C(C)(C)C)C(OC(=O)c2c(-c3ccccc3)c(C=C3N=C(NC(=O)C(C)SCCCS(=O)(=O)[O-])C(C#N)=C3c3ccccc3)[n]([Zn][OH])c2NC(=O)c2cc(F)cc(F)c2)C(C(C)(C)C)C1.[Na+] (stereo not drawn) [Ib-40] | A (Transmittance at 450 nm was 90% or more)
A (ΔEab value was less than 6) | A | A (ΔEab value was less than 6) | 562 | 76,500 | 0.0195 | CC1CC(C(C)(C)C)C(OC(=O)c2c(-c3ccccc3)c3[n](c2NC(=O)c2cc(C(F)(F)F)cc(C(F)(F)F)c2)[Zn-]([OH])[N+]2=C(NC(=O)C(C)Sc4cc(C(=O)O)cc(C(=O)O)c4)C(C#N)=C(c4ccccc4)C2=C3)C(C(C)(C)C)C1 (stereo not drawn) [Ib-41] | A (Transmittance at 450 nm was 90% or more)
A (ΔEab value was less than 6) | B | A (ΔEab value was less than 6) | 560 | 66,100 | 0.0186 | CC1CC(C(C)(C)C)C(OC(=O)c2c(-c3ccccc3)c3[n](c2NC(=O)c2cccc(F)c2C(=O)O)[Zn-]([OH])[N+]2=C(NC(=O)C(C)Sc4cc(C(=O)O)cc(C(=O)O)c4)C(C#N)=C(c4ccccc4)C2=C3)C(C(C)(C)C)C1 (stereo not drawn) [Ib-46] | A (Transmittance at 450 nm was 90% or more)

Second part, the compound before the results:

Structure (SMILES) | Light-fastness [1] | Storage stability [2] | Heat resistance [4] | maximum absorption wavelength (λmax) [5] [nm] | molar absorption coefficient (ε) [5] | Abs value at 450 nm when normalized to Abs = 1.0 at λmax [5] | Transmittance at 450 nm [3]
Cc1c(C(=O)OC2C(C(C)(C)C)CC(C)CC2C(C)(C)C)c(NC(=O)c2cccc(C(F)(F)F)c2)[n]([Zn][OH])c1C=C1N=C(NC(=O)C(C)(C)C)C(C#N)=C1c1ccccc1 (stereo not drawn) [Ia-14] | A (ΔEab value was less than 6) | A | A (ΔEab value was less than 6) | 560 | 87,600 | 0.0112 | A (Transmittance at 450 nm was 90% or more)
Cc1c(C(=O)OC2C(C(C)(C)C)CC(C)CC2C(C)(C)C)c(NC(=O)c2cccc(C(F)(F)F)c2)[n]2c1C=C1C(c3ccccc3)=C(C#N)C(NC(=O)C(C)Sc3cc(C(=O)O)cc(C(=O)O)c3)=[N+]1[Zn-]2[OH] (stereo not drawn) [Ia-15] | A (ΔEab value was less than 6) | A | A (ΔEab value was less than 6) | 558 | 91,000 | 0.091 | A (Transmittance at 450 nm was 90% or more)
Cc1c(C(=O)OC2C(C(C)(C)C)CC(C)CC2C(C)(C)C)c(NC(=O)c2ccc(C(F)(F)F)cc2)[n]2c1C=C1C(c3ccccc3)=C(C#N)C(NC(=O)C(C)Sc3cc(C(=O)O)cc(C(=O)O)c3)=[N+]1[Zn-]2[OH] (stereo not drawn) [Ia-23] | A (ΔEab value was less than 6) | A | A (ΔEab value was less than 6) | 558 | 83,200 | 0.0099 | A (Transmittance at 450 nm was 90% or more)
Cc1c(C(=O)OC2C(C(C)(C)C)CC(C)CC2C(C)(C)C)c(NC(=O)c2ccc(F)c(F)c2)[n]2c1C=C1C(c3ccccc3)=C(C#N)C(NC(=O)C(C)Sc3cc(C(=O)O)cc(C(=O)O)c3)=[N+]1[Zn-]2[OH] (stereo not drawn) [Ia-35] | A (ΔEab value was less than 6) | A | A (ΔEab value was less than 6) | 559 | 90,100 | 0.0106 | A (Transmittance at 450 nm was 90% or more)
Cc1c(C(=O)OC2C(C(C)(C)C)CC(C)CC2C(C)(C)C)c(NC(=O)c2cc(F)cc(F)c2)[n]2c1C=C1C(c3ccccc3)=C(C#N)C(NC(=O)C(C)Sc3cc(C(=O)O)cc(C(=O)O)c3)=[N+]1[Zn-]2[OH] (stereo not drawn) [Ia-38] | A (ΔEab value was less than 6) | A | A (ΔEab value was less than 6) | 558 | 79,400 | 0.0191 | A (Transmittance at 450 nm was 90% or more)
CC1CC(C(C)(C)C)C(OC(=O)c2c(-c3ccccc3)c(C=C3N=C(NC(=O)C(C)(C)C)C(C#N)=C3c3ccccc3)[n]([Zn][OH])c2NC(=O)c2cccc(C(F)(F)F)c2)C(C(C)(C)C)C1 (stereo not drawn) [Ib-14] | A (ΔEab value was less than 6) | A | A (ΔEab value was less than 6) | 561 | 85,200 | 0.0105 | A (Transmittance at 450 nm was 90% or more)
CC1CC(C(C)(C)C)C(OC(=O)c2c(-c3ccccc3)c3[n](c2NC(=O)c2cccc(C(F)(F)F)c2)[Zn-]([OH])[N+]2=C(NC(=O)C(C)Sc4cc(C(=O)O)cc(C(=O)O)c4)C(C#N)=C(c4ccccc4)C2=C3)C(C(C)(C)C)C1 (stereo not drawn) [Ib-15] | A (ΔEab value was less than 6) | A | A (ΔEab value was less than 6) | 562 | 87,100 | 0.0089 | A (Transmittance at 450 nm was 90% or more)
